Among the data in patent publication US20260200897A1, “4-((5-(3-(4-(PYRIDIN-2-YL)CYCLOPENTYL)-1H-PYRAZOL-3-YL)AMINO)-BENZENESULFONAMIDE DERIVATIVES AND SIMILAR COMPOUNDS AS CDK INHIBITORS FOR THE TREATMENT OF CANCER” (BeOne Medicines I GmbH, priority 2023, published 2026) are IC50 values, retold here.

Test [1] addresses CDK1/Cyclin B1 (Homo sapiens, UniProt P06493). Kind of test: CDK1/Cyclin B1 TR-FRET biochemical assay, 1 mM ATP. The note with it: 0.15 μM Rb (Ser780)-biotin substrate, 90 min reaction, Table 2.
Test [2] deals with CDK2/Cyclin E1 (Homo sapiens, UniProt P24941). Kind of test: CDK2/Cyclin E1 TR-FRET biochemical assay, 1 mM ATP. As to conditions: 0.15 μM Rb (Ser780)-biotin substrate, 90 min reaction, Table 2. Background: Time-resolved FRET reads energy transfer from a long-lived donor to a nearby acceptor.

Some results are limits rather than exact numbers.

Chain of CDK1/Cyclin B1 (P06493 whole entry): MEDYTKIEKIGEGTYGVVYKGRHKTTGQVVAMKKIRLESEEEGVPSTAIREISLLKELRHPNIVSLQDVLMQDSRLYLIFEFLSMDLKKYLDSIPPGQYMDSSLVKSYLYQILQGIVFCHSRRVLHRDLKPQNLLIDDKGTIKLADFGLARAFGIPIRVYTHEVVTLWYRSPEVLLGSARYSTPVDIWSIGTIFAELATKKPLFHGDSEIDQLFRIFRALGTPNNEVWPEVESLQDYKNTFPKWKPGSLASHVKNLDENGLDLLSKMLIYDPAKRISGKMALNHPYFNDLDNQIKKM
Chain of CDK1/Cyclin B1 (P14635 whole entry partner): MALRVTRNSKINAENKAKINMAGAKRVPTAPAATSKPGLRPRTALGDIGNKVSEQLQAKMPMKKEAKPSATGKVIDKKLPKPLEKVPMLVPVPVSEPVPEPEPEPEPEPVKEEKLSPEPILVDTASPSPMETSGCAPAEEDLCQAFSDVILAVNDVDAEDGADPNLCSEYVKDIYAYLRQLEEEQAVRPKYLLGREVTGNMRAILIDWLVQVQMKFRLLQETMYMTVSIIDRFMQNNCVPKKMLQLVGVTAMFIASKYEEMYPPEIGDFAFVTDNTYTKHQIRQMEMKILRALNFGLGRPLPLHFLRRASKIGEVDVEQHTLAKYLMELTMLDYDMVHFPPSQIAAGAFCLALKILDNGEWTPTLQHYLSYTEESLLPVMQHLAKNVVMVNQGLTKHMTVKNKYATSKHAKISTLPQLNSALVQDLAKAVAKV

In general, IC50 refers to the point on the concentration scale where inhibition reaches its midpoint. Low values mean greater potency, high ones weaker potency. In the case of `CC(C)(O)c1cc(C2CCC(c3cc(Nc4ccc5c(c4F)CS(=O)(=O)N5)n[nH]3)C2)n[nH]1` (stereo not shown) [Example 150, 4-fluoro-5-((5-(3-(5-(2-hydroxypropan-2-yl)-1H-pyrazol-3-yl)cyclopentyl)-1H-pyrazol-3-yl)amino)-1,3-dihydrobenzo[c]isothiazole 2,2-dioxide], the IC50 in test [1] was over 10000 nM; in test [2], 189 nM.
For `CC(C)(C)c1cnnc(C2CCC(c3cc(Nc4ccc5c(c4F)CNS5(=O)=O)n[nH]3)C2)c1` (stereo not shown) [Example 131, 5-((5-(3-(5-(tert-butyl)pyridazin-3-yl)cyclopentyl)-1H-pyrazol-3-yl)amino)-4-fluoro-2,3-dihydrobenzo[d]isothiazole 1,1-dioxide] the same measures were over 10000 nM and 167 nM.
The matching figures for `CC(C)c1cnc(C2CCC(c3cc(Nc4ccc5c(c4)CN=S5(C)=O)n[nH]3)C2)o1` (stereo not shown) [Example 168, 5-((5-(3-(5-isopropyloxazol-2-yl)cyclopentyl)-1H-pyrazol-3-yl)amino)-1-methyl-3H-1λ^4-benzo[d]isothiazole 1-oxide]: 2350 nM and 15 nM.
The matching figures for `CC(C)(O)c1cnc(C2CCC(c3cc(Nc4ccc5c(c4F)CS(=O)(=O)C5)n[nH]3)C2)o1` (stereo not shown) [Example 179, 4-fluoro-5-((5-(3-(5-(2-hydroxypropan-2-yl)oxazol-2-yl)cyclopentyl)-1H-pyrazol-3-yl)amino)-1,3-dihydrobenzo[c]thiophene 2,2-dioxide]: 537 nM and 1.5 nM.
For the compound `CC(C)(C)c1cnc(C2CCC(c3cc(Nc4ccc(S(N)(=O)=O)cc4F)n[nH]3)C2)o1` (single isomer, unassigned) [Example 6b, 4-((5-(3-(5-(tert-butyl)oxazol-2-yl)cyclopentyl)-1H-pyrazol-3-yl)amino)-3-fluorobenzenesulfonamide], the results for the IC50 in test [1] and in test [2] were over 10000 nM and 88 nM, respectively.
As to `O=S1(=O)NCc2c1ccc(Nc1cc(C3CCC(c4cnc(C5CC5)o4)C3)[nH]n1)c2F` (stereo not shown) [Example 106, 5-((5-(3-(2-cyclopropyloxazol-5-yl)cyclopentyl)-1H-pyrazol-3-yl)amino)-4-fluoro-2,3-dihydrobenzo[d]isothiazole 1,1-dioxide], the IC50 in test [1] is over 10000 nM; in test [2], 1050 nM.
For `CC(C)c1ccnc(C2CCC(c3cc(Nc4ccc5c(c4F)CS(=O)(=O)C5)n[nH]3)C2)c1` (stereo not shown) [Example 178, 4-fluoro-5-((5-(3-(4-isopropylpyridin-2-yl)cyclopentyl)-1H-pyrazol-3-yl)amino)-1,3-dihydrobenzo[c]thiophene 2,2-dioxide] the same measures were 1520 nM and 7 nM.
Take `Cc1nc(C2CCC(c3cc(Nc4ccc5c(c4F)CS(=O)(=O)C5)n[nH]3)C2)oc1C(C)(C)C` (stereo not shown) [Example 177, 5-((5-(3-(5-(tert-butyl)-4-methyloxazol-2-yl)cyclopentyl)-1H-pyrazol-3-yl)amino)-4-fluoro-1,3-dihydrobenzo[c]thiophene 2,2-dioxide]: the figures for the IC50 in test [1] and in test [2] were 336 nM and 3 nM, respectively.
For `CC(C)(C)c1cccc(C2CCC(c3cc(Nc4ccc5c(c4F)CNS5(=O)=O)[nH]n3)C2)n1` (stereo not shown) [Example 118, 5-((3-(3-(6-(tert-butyl)pyridin-2-yl)cyclopentyl)-1H-pyrazol-5-yl)amino)-4-fluoro-2,3-dihydrobenzo[d]isothiazole 1,1-dioxide] the same measures were over 10000 nM and 725 nM.
For `Cc1nc(C2CCC(c3cc(Nc4ccc5c(c4F)CNS5(=O)=O)n[nH]3)C2)oc1C(C)(C)C` (stereo not shown) [Example 111, 5-((5-(3-(5-(tert-butyl)-4-methyloxazol-2-yl)cyclopentyl)-1H-pyrazol-3-yl)amino)-4-fluoro-2,3-dihydrobenzo[d]isothiazole 1,1-dioxide] the same measures were 4470 nM and 17 nM.
The matching figures for `CC(C)(C)c1cnc(C2CCC(c3cc(Nc4ccc5c(c4F)CNS5(=O)=O)n[nH]3)C2)[nH]1` (stereo not shown) [Example 103, 5-((5-(3-(5-(tert-butyl)-1H-imidazol-2-yl)cyclopentyl)-1H-pyrazol-3-yl)amino)-4-fluoro-2,3-dihydrobenzo[d]isothiazole 1,1-dioxide]: over 10000 nM and over 10000 nM.
On to `Cc1cccc(C2CCC(c3cc(Nc4ccc5c(c4F)CS(=O)(=O)N5)n[nH]3)C2)n1` (stereo not shown) [Example 159, 4-fluoro-5-((5-(3-(6-methylpyridin-2-yl)cyclopentyl)-1H-pyrazol-3-yl)amino)-1,3-dihydrobenzo[c]isothiazole 2,2-dioxide], for which the IC50 in test [1] is over 10000 nM; in test [2] it was 1040 nM.
The matching figures for `CC(C)(C)c1cc(C2CCC(c3cc(Nc4ccc5c(c4F)CNS5(=O)=O)n[nH]3)C2)ncn1` (stereo not shown) [Example 130, 5-((5-(3-(6-(tert-butyl)pyrimidin-4-yl)cyclopentyl)-1H-pyrazol-3-yl)amino)-4-fluoro-2,3-dihydrobenzo[d]isothiazole 1,1-dioxide]: over 10000 nM and 2120 nM.
The matching figures for `CC(C)(C)c1cn([C@@H]2CC[C@H](c3cc(Nc4ccc5c(c4F)CNS5(=O)=O)n[nH]3)C2)cn1` (relative stereo) [Example 88, cis-5-((5-(3-(4-(tert-butyl)-1H-imidazol-1-yl)cyclopentyl)-1H-pyrazol-3-yl)amino)-4-fluoro-2,3-dihydrobenzo[d]isothiazole 1,1-dioxide]: over 10000 nM and over 10000 nM.
For the compound `CC(C)(C)c1cnc(C2CCC(c3cc(Nc4cc5c(cc4F)S(=O)(=O)NC5)n[nH]3)C2)o1` (single isomer, unassigned) [Example 17d, 5-((5-(3-(5-(tert-butyl)oxazol-2-yl)cyclopentyl)-1H-pyrazol-3-yl)amino)-6-fluoro-2,3-dihydrobenzo[d]isothiazole 1,1-dioxide], the IC50 in test [1] was over 10000 nM; in test [2], 2870 nM.
The matching figures for `CC(C)(C)c1cc(C2CCC(c3cc(Nc4ccc5c(c4F)CNS5(=O)=O)n[nH]3)C2)ccn1` (stereo not shown) [Example 129, 5-((5-(3-(2-(tert-butyl)pyridin-4-yl)cyclopentyl)-1H-pyrazol-3-yl)amino)-4-fluoro-2,3-dihydrobenzo[d]isothiazole 1,1-dioxide]: over 10000 nM and 8020 nM.
For `CC(C)(C)c1cnc(C2CCC(c3cc(Nc4ccc5c(c4)CN=S5(C)=O)n[nH]3)C2)o1` (single isomer, unassigned) [Example 169c, 5-((5-(3-(5-(tert-butyl)oxazol-2-yl)cyclopentyl)-1H-pyrazol-3-yl)amino)-1-methyl-3H-1λ^4-benzo[d]isothiazole 1-oxide] the same measures were 6710 nM and 57 nM.
For `CC(C)(C)c1cccc(C2=CC(c3cc(Nc4ccc5c(c4F)CS(=O)(=O)N5)n[nH]3)CC2)n1` (stereo not shown) [Example 157, 5-((5-(3-(6-(tert-butyl)pyridin-2-yl)cyclopent-2-en-1-yl)-1H-pyrazol-3-yl)amino)-4-fluoro-1,3-dihydrobenzo[c]isothiazole 2,2-dioxide] the same measures were over 10000 nM and over 10000 nM.
In the case of `CC(C)(O)c1cnc(C2CCC(c3cc(Nc4ccc5c(c4F)CNS5(=O)=O)n[nH]3)C2)o1` (stereo not shown) [Example 110, 4-fluoro-5-((5-(3-(5-(2-hydroxypropan-2-yl)oxazol-2-yl)cyclopentyl)-1H-pyrazol-3-yl)amino)-2,3-dihydrobenzo[d]isothiazole 1,1-dioxide], the IC50 is 7240 nM in test [1] and 32 nM in test [2].
The matching figures for `CC(C)(C)c1cnnc(C2CCC(c3cc(Nc4cc5c(cc4F)S(=O)(=O)NC5)n[nH]3)C2)c1` (stereo not shown) [Example 14, 5-((5-(3-(5-(tert-butyl)pyridazin-3-yl)cyclopentyl)-1H-pyrazol-3-yl)amino)-6-fluoro-2,3-dihydrobenzo[d]isothiazole 1,1-dioxide]: over 10000 nM and 369 nM.
For `CC(C)(C)c1ccnc(C2CCC(c3cc(Nc4ccc5c(c4F)CS(=O)(=O)N5)n[nH]3)C2)c1` (stereo not shown) [Example 155, 5-((5-(3-(4-(tert-butyl)pyridin-2-yl)cyclopentyl)-1H-pyrazol-3-yl)amino)-4-fluoro-1,3-dihydrobenzo[c]isothiazole 2,2-dioxide] the same measures were 685 nM and 4.6 nM.
The matching figures for `CC(C)(C)c1ccc(C2CCC(c3cc(Nc4ccc5c(c4F)CNS5(=O)=O)[nH]n3)C2)nc1` (stereo not shown) [Example 119, 5-((3-(3-(5-(tert-butyl)pyridin-2-yl)cyclopentyl)-1H-pyrazol-5-yl)amino)-4-fluoro-2,3-dihydrobenzo[d]isothiazole 1,1-dioxide]: over 10000 nM and over 10000 nM.
Regarding `CC(C)(C)c1ccnc(C2CCC(c3cc(Nc4ccc(S(N)(=O)=O)cc4F)n[nH]3)C2)c1` (stereo not shown) [Example 1, 4-((5-(3-(4-(tert-butyl)pyridin-2-yl)cyclopentyl)-1H-pyrazol-3-yl)amino)-3-fluorobenzenesulfonamide], the values for the IC50 in test [1] and in test [2] were over 10000 nM and 100 nM, respectively.
The matching figures for `CC(C)(C)c1csnc1O[C@@H]1CC[C@H](c2cc(Nc3ccc4c(c3F)CNS4(=O)=O)n[nH]2)C1` (relative stereo) [Example 56, cis-5-((5-(3-((4-(tert-butyl)isothiazol-3-yl)oxy)cyclopentyl)-1H-pyrazol-3-yl)amino)-4-fluoro-2,3-dihydrobenzo[d]isothiazole 1,1-dioxide]: 3500 nM and 4.3 nM.
With `NS(=O)(=O)c1ccc(Nc2cc(C3CCC(c4ncc(C5CC5)o4)C3)[nH]n2)c(F)c1` (stereo not shown) [Example 9, 4-((5-(3-(5-cyclopropyloxazol-2-yl)cyclopentyl)-1H-pyrazol-3-yl)amino)-3-fluorobenzenesulfonamide], the IC50 in test [1] was over 10000 nM; in test [2] it was 131 nM.
With `CC(C)c1cnc(C2CCC(c3cc(Nc4ccc5c(c4F)CNS5(=O)=O)n[nH]3)C2)o1` (single isomer, unassigned) [Example 109a, 4-fluoro-5-((5-(3-(5-isopropyloxazol-2-yl)cyclopentyl)-1H-pyrazol-3-yl)amino)-2,3-dihydrobenzo[d]isothiazole 1,1-dioxide], the IC50 in test [1] worked out at 2870 nM; in test [2], 8.6 nM.
